The nature of experiment [1]: (§1) Test for beta-lactamase Inhibitory Activity: he inhibitory activities of present compounds against various enzymes were measured by spectrophotometric assay using […] and using nitrocefin as a substrate [J. Antimicrob. Chemother., 28, pp 775-776 (1991)]. The concentration of inhibitor (IC50) which inhibits by 50% the reaction of hydrolysis of nitrocefin by the enzyme is determined.

Experiment [2] in a line: as §1. This is another data set of the same source.

Broadly, the IC50 is the concentration needed to halve the response being measured. Lower therefore signals greater potency. As for `CC(=O)NNC(=O)[C@@H]1CC[C@@H]2CN1C(=O)N2OS(=O)(=O)O`, the half-inhibitory concentration (IC50) in experiment [1] stood at 0.008 µM; in experiment [2] it was 0.091 µM.

Values taken from ChEMBL document CHEMBL5727501, “Bicyclic compounds and their use as antibacterial agents and β-lactamase inhibitors” (2020).
